According to PubChem BioAssay AID330 (DTP/NCI, 2004):
Several values for one entry are separate records, joined by “and”; a condition that tells them apart may be missing. Identical values can stand only once. Inconclusive results and toxic doses are left out. The calls were made as follows: active = survival T/C of 150% or more; inactive = T/C below 125% in these data.

Tested on: P388 leukemia ip, CD2F1 mice, survival T/C
Assay: NCI In Vivo Anticancer Drug Screen. Data for tumor model P388 Leukemia (intraperitoneal) in CD2F1 (CDF1) mice
Settings: endpoint: median survival time, higher = longer survival
Outline: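 Mice carrying the transplanted tumor received test compound or vehicle. Survival was recorded in each group, and the value is the treated-group measurement divided by that of the vehicle-treated control group.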

[1] = dose: 60.0 mg/kg/injection, schedule: Q01DX005 (ip), vehicle: Klucel (hydroxypropylcellulose) (HPC)
[2] = dose: 120.0 mg/kg/injection, schedule: Q01DX005 (ip), vehicle: Klucel (hydroxypropylcellulose) (HPC)
[3] = dose: 240.0 mg/kg/injection, schedule: Q01DX005 (ip), vehicle: Klucel (hydroxypropylcellulose) (HPC)
[4] = dose: 100.0 mg/kg/injection, schedule: Q01DX001 (ip), vehicle: saline with Tween-80
[5] = dose: 200.0 mg/kg/injection, schedule: Q01DX001 (ip), vehicle: saline with Tween-80
[6] = dose: 50.0 mg/kg/injection, schedule: Q01DX005 (ip), vehicle: Klucel (hydroxypropylcellulose) (HPC)
[7] = dose: 100.0 mg/kg/injection, schedule: Q01DX005 (ip), vehicle: Klucel (hydroxypropylcellulose) (HPC)
[8] = dose: 200.0 mg/kg/injection, schedule: Q01DX005 (ip), vehicle: Klucel (hydroxypropylcellulose) (HPC)

Measured: T/C

NC12CCC(N)(c3ccccc31)c1ccccc12
inactive: [1] 93 % of control | [2] 98 % of control | [3] 98 % of control

C[Si](C)(C)CCCNCCNCCC[Si](C)(C)C
inactive: dose: 60.0 mg/kg/injection, schedule: Q01DX005 (ip), vehicle: saline with Tween-80 100 % of control | dose: 120.0 mg/kg/injection, schedule: Q01DX005 (ip), vehicle: saline with Tween-80 100 % of control

CC(=O)c1ccc(N(C)C(=O)C(Cl)Cl)cc1
inactive: dose: 100.0 mg/kg/injection, schedule: Q04DX003 (ip), vehicle: Klucel (hydroxypropylcellulose) (HPC) 100 % of control | dose: 200.0 mg/kg/injection, schedule: Q04DX003 (ip), vehicle: Klucel (hydroxypropylcellulose) (HPC) 100 % of control | dose: 400.0 mg/kg/injection, schedule: Q04DX003 (ip), vehicle: Klucel (hydroxypropylcellulose) (HPC) 100 % of control

CC(=O)OC(C[Se]c1ccccc1)OC(C)=O
inactive: dose: 37.5 mg/kg/injection, schedule: Q01DX001 (ip), vehicle: saline with Tween-80 105 % of control | dose: 75.0 mg/kg/injection, schedule: Q01DX001 (ip), vehicle: saline with Tween-80 99 % of control and 105 % of control

CP(=Nc1ccccc1)(c1ccccc1)c1ccccc1
inactive: [4] 95 % of control | [5] 99 % of control | dose: 400.0 mg/kg/injection, schedule: Q01DX001 (ip), vehicle: saline with Tween-80 102 % of control

NC(N)=Nc1nc2ccccc2s1
inactive: dose: 12.5 mg/kg/injection, schedule: Q01DX009 (ip), vehicle: saline sonified 100 % of control | dose: 25.0 mg/kg/injection, schedule: Q01DX009 (ip), vehicle: saline sonified 100 % of control | dose: 50.0 mg/kg/injection, schedule: Q01DX009 (ip), vehicle: saline sonified 100 % of control

CC(=O)OC(C)(C)/C=C/C(=O)[C@](C)(O)[C@H]1[C@H](O)C[C@@]2(C)[C@@H]3CC=C4[C@@H](C=C(O)C(=O)C4(C)C)[C@]3(C)C(=O)C[C@]12C
inactive: dose: 0.25 mg/kg/injection, schedule: Q01DX009 (ip), vehicle: saline with Tween-80 87 % of control | dose: 1.0 mg/kg/injection, schedule: Q01DX009 (ip), vehicle: saline with Tween-80 91 % of control | dose: 1.0 mg/kg/injection, schedule: Q01DX009 (ip), vehicle: saline 93 % of control | dose: 2.0 mg/kg/injection, schedule: Q01DX009 (ip), vehicle: saline with Tween-80 91 % of control | dose: 2.0 mg/kg/injection, schedule: Q01DX009 (ip), vehicle: saline 94 % of control | dose: 4.0 mg/kg/injection, schedule: Q01DX009 (ip), vehicle: saline with Tween-80 91 % of control | dose: 4.0 mg/kg/injection, schedule: Q01DX009 (ip), vehicle: saline 93 % of control | dose: 8.0 mg/kg/injection, schedule: Q01DX009 (ip), vehicle: saline 93 % of control

OC(Cc1cnc2ccccc2n1)(C(F)(F)F)C(F)(F)F
inactive: dose: 100.0 mg/kg/injection, schedule: Q04DX003 (ip), vehicle: saline with Tween-80 109 % of control | dose: 200.0 mg/kg/injection, schedule: Q04DX003 (ip), vehicle: saline with Tween-80 95 % of control | dose: 400.0 mg/kg/injection, schedule: Q04DX003 (ip), vehicle: saline with Tween-80 90 % of control

CC(C)N(Cc1ccccc1)CC(O)c1ccc(Cl)cc1 (centres undefined)
inactive: dose: 12.5 mg/kg/injection, schedule: Q01DX009 (ip), vehicle: saline with Tween-80 104 % of control | dose: 25.0 mg/kg/injection, schedule: Q01DX009 (ip), vehicle: saline with Tween-80 108 % of control | dose: 50.0 mg/kg/injection, schedule: Q01DX009 (ip), vehicle: saline with Tween-80 100 % of control and 108 % of control | dose: 100.0 mg/kg/injection, schedule: Q01DX009 (ip), vehicle: saline with Tween-80 95 % of control

c1ccc2c(NCCCCCCCCCCCCNc3c4ccccc4nc4ccccc34)c3ccccc3nc2c1
inactive: dose: 1.25 mg/kg/injection, schedule: Q## X009 (ip), vehicle: lactic acid 100 % of control and 96 % of control | dose: 2.5 mg/kg/injection, schedule: Q## X009 (ip), vehicle: lactic acid 99 % of control and 92 % of control | dose: 5.0 mg/kg/injection, schedule: Q## X009 (ip), vehicle: lactic acid 107 % of control and 110 % of control

CC(NC(=O)/C=C/c1ccco1)C(=O)NC(Cc1ccccc1)C(N)=O (centres undefined)
inactive: [6] 104 % of control | [7] 106 % of control | [8] 104 % of control

CC1=C(C(=O)O)CCC1(C)C
inactive: dose: 100.0 mg/kg/injection, schedule: Q04DX002 (ip), vehicle: saline with Tween-80 98 % of control | dose: 200.0 mg/kg/injection, schedule: Q04DX002 (ip), vehicle: saline with Tween-80 101 % of control | dose: 400.0 mg/kg/injection, schedule: Q04DX002 (ip), vehicle: saline with Tween-80 104 % of control

CC(=O)OC1C2=C(C)C(=O)OC2=CC2=CCCC(C)C21C (centres undefined)
inactive: dose: 4.0 mg/kg/injection, schedule: Q01DX009 (ip), vehicle: Klucel (hydroxypropylcellulose) (HPC) 102 % of control | dose: 8.0 mg/kg/injection, schedule: Q01DX009 (ip), vehicle: Klucel (hydroxypropylcellulose) (HPC) 91 % of control | dose: 16.0 mg/kg/injection, schedule: Q01DX009 (ip), vehicle: Klucel (hydroxypropylcellulose) (HPC) 102 % of control | dose: 32.0 mg/kg/injection, schedule: Q01DX009 (ip), vehicle: Klucel (hydroxypropylcellulose) (HPC) 109 % of control

CCCCCCCCCC(=O)c1cc(O)c(C(=O)CCCCCCCCC)cc1O
inactive: [1] 103 % of control | [2] 104 % of control | [3] 105 % of control

CC1(C)OC2CC(=O)OCC23C1=C(O)C(=O)C1(C)C3CCC2(C)C(c3ccoc3)OC(=O)C3OC321 (centres undefined)
inactive: dose: 0.5 mg/kg/injection, schedule: Q01DX009 (ip), vehicle: saline + alcohol 101 % of control | dose: 1.0 mg/kg/injection, schedule: Q01DX009 (ip), vehicle: saline + alcohol 104 % of control | dose: 2.0 mg/kg/injection, schedule: Q01DX009 (ip), vehicle: saline + alcohol 106 % of control | dose: 4.0 mg/kg/injection, schedule: Q01DX009 (ip), vehicle: saline + alcohol 106 % of control | dose: 8.0 mg/kg/injection, schedule: Q01DX009 (ip), vehicle: saline + alcohol 101 % of control

O=C1Cc2ccccc2NC(c2ccccc2)C1S(=O)(=O)c1ccccc1 (centres undefined)
inactive: [6] 102 % of control | [7] 102 % of control | [8] 101 % of control

COc1cc2c(oc(=O)c3cc(C)cc(OC)c32)c2c(C3OC(C)C(O)C(C)(O)C3O)ccc(O)c12 (centres undefined)
inactive: dose: 1.56 mg/kg/injection, schedule: Q01DX005 (ip), vehicle: DMSO 101 % of control | dose: 3.12 mg/kg/injection, schedule: Q01DX005 (ip), vehicle: DMSO 105 % of control and 109 % of control | dose: 6.25 mg/kg/injection, schedule: Q01DX005 (ip), vehicle: DMSO 114 % of control | dose: 12.5 mg/kg/injection, schedule: Q01DX005 (ip), vehicle: DMSO 123 % of control

O=C(O)CNCCCCCCNCC(=O)O
inactive: dose: 50.0 mg/kg/injection, schedule: Q01DX005 (ip), vehicle: saline 98 % of control | dose: 100.0 mg/kg/injection, schedule: Q01DX005 (ip), vehicle: saline 103 % of control | dose: 200.0 mg/kg/injection, schedule: Q01DX005 (ip), vehicle: saline 106 % of control

COc1ccc2cc1Oc1ccc(cc1)CC1c3cc(OC)c(cc3CCN1C)Oc1c(O)c(OC)cc3c1C(C2)N(C)CC3 (centres undefined)
inactive: dose: 3.88 mg/kg/injection, schedule: Q01DX005 (ip), vehicle: Klucel (hydroxypropylcellulose) (HPC) 103 % of control | dose: 7.75 mg/kg/injection, schedule: Q01DX005 (ip), vehicle: Klucel (hydroxypropylcellulose) (HPC) 95 % of control | dose: 15.5 mg/kg/injection, schedule: Q01DX005 (ip), vehicle: Klucel (hydroxypropylcellulose) (HPC) 95 % of control | dose: 31.0 mg/kg/injection, schedule: Q01DX005 (ip), vehicle: Klucel (hydroxypropylcellulose) (HPC) 95 % of control

Cc1ccc(N2C(=O)CCSC2=S)cc1Cl
inactive: dose: 50.0 mg/kg/injection, schedule: Q01DX009 (ip), vehicle: Klucel (hydroxypropylcellulose) (HPC) 115 % of control | dose: 50.0 mg/kg/injection, schedule: Q01DX009 (ip), vehicle: suspension in saline 87 % of control | dose: 100.0 mg/kg/injection, schedule: Q01DX009 (ip), vehicle: Klucel (hydroxypropylcellulose) (HPC) 114 % of control and 122 % of control | dose: 100.0 mg/kg/injection, schedule: Q01DX009 (ip), vehicle: suspension in saline 90 % of control | dose: 200.0 mg/kg/injection, schedule: Q01DX009 (ip), vehicle: Klucel (hydroxypropylcellulose) (HPC) 86 % of control | dose: 200.0 mg/kg/injection, schedule: Q01DX009 (ip), vehicle: suspension in saline 99 % of control

O=C(O)c1ccnc(C(=O)O)c1
inactive: [4] 100 % of control | [5] 90 % of control
